Key:
surinam grass = test: Test B pre/postemergence surinam grass; format: in vivo, Brachiaria decumbens; conditions: for B. signalgrass plant response rating: scale of 0 to 10 where 0 is no effect and 10 is complete control
In short: (§1)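 Test chemicals in a non-phytotoxic solvent mixture with surfactant were sprayed preemergence onto planted seeds and postemergence onto plants 2 to 18 cm tall (1- to 4-leaf stage). After twelve to sixteen days in a greenhouse, injury was visually rated against untreated controls from 0 (no effect) to 10 (complete control).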

smallflower flatsedge = test: Test B flood test smallflower flatsedge; format: in vivo, Cyperus difformis
In short: (§2)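 Flood test on plants grown to the 2-leaf stage; treated plants kept in greenhouse twelve to sixteen days, then visually rated against controls on a 0 (no effect) to 10 (complete control) scale.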

rape = test: Test B pre/postemergence rape; format: in vivo, Brassica napus; conditions: for Rape plant response rating: scale of 0 to 10 where 0 is no effect and 10 is complete control
In short: as §1

velvetleaf = test: Test B pre/postemergence velvetleaf; format: in vivo, Abutilon theophrasti; conditions: for Velvetleaf plant response rating: scale of 0 to 10 where 0 is no effect and 10 is complete control
In short: as §1

duck salad = test: Test B flood test duck salad; format: in vivo, Heteranthera limosa
In short: as §2

crabgrass = test: Test B pre/postemergence crabgrass; format: in vivo, Digitaria sanguinalis; conditions: for Crabgrass plant response rating: scale of 0 to 10 where 0 is no effect and 10 is complete control
In short: as §1

cocklebur = test: Test B pre/postemergence cocklebur; format: in vivo, Xanthium strumarium; conditions: for Cocklebur plant response rating: scale of 0 to 10 where 0 is no effect and 10 is complete control
In short: as §1

wheat = test: Test B pre/postemergence wheat; format: in vivo, Triticum aestivum; conditions: for Wheat plant response rating: scale of 0 to 10 where 0 is no effect and 10 is complete control
In short: as §1

blackgrass = test: Test B pre/postemergence blackgrass; format: in vivo, Alopecurus myosuroides; conditions: for Blackgrass plant response rating: scale of 0 to 10 where 0 is no effect and 10 is complete control
In short: as §1

corn = test: Test B pre/postemergence corn; format: in vivo, Zea mays; conditions: for Corn plant response rating: scale of 0 to 10 where 0 is no effect and 10 is complete control
In short: as §1

sugar beet = test: Test B pre/postemergence sugar beet; format: in vivo, Beta vulgaris; conditions: for Sugarbeets plant response rating: scale of 0 to 10 where 0 is no effect and 10 is complete control
In short: as §1

morningglory = test: Test B pre/postemergence morningglory; format: in vivo, Ipomoea hederacea; conditions: for Morningglory plant response rating: scale of 0 to 10 where 0 is no effect and 10 is complete control
In short: as §1

pigweed = test: Test B pre/postemergence pigweed; format: in vivo, Amaranthus retroflexus; conditions: for Redroot pigweed plant response rating: scale of 0 to 10 where 0 is no effect and 10 is complete control
In short: as §1

rice = test: Test B flood test rice; format: in vivo, Oryza sativa
In short: as §2

purple nutsedge = test: Test B pre/postemergence purple nutsedge; format: in vivo, Cyperus rotundus; conditions: for Nutsedge plant response rating: scale of 0 to 10 where 0 is no effect and 10 is complete control
In short: as §1

giant foxtail = test: Test B pre/postemergence giant foxtail; format: in vivo, Setaria faberii; conditions: for Giant foxtail plant response rating: scale of 0 to 10 where 0 is no effect and 10 is complete control
In short: as §1

[1] = Postemergence, Rate 125 g/ha, scale 0 to 10, 0 is no effect, 10 is complete control
[2] = Postemergence, Rate 250 g/ha, scale 0 to 10, 0 is no effect, 10 is complete control
[3] = Preemergence, Rate 62 g/ha, scale 0 to 10 (0 no effect, 10 complete control)
[4] = Rate 500 g/ha, Postemergence, scale 0 to 10, 0 no effect, 10 complete control
[5] = Rate 62 g/ha, flood test species, Pre-emergence, visual evaluation after twelve to sixteen days
[6] = Rate 125 g/ha, under heading Pre-emergence, flood test species, visual evaluation after twelve to sixteen days
[7] = Rate 250 g/ha, Pre-emergence, flood-test species, scale 0 to 10, 0 is no effect, 10 is complete control
[8] = Rate 500 g/ha, Pre-emergence, flood test species, scale 0 to 10 (0 no effect, 10 complete control)

CC(C)N(C(=O)n1oc(=O)n(N2CCOCC2)c1=O)c1ccc(F)cc1 [Compound 385]
8: Plant response rating, B. signalgrass (surinam grass; [4]) | Wheat plant response rating (wheat; Preemergence, Rate 500 g/ha) | Plant response rating, Blackgrass (blackgrass; [4])
0: Plant response rating, B. signalgrass (surinam grass; [3]) | B. signalgrass plant response rating (0 to 10 scale, 0 is no effect, 10 is complete control) (surinam grass; Preemergence, Rate 125 g/ha) | B. signalgrass plant response rating (surinam grass; Rate 62 g/ha, Postemergence) | Plant response rating, S. Flatsedge (0 to 10 scale, 0 is no effect, 10 is complete control) (smallflower flatsedge; [5]) | S. Flatsedge plant response rating (0 to 10 scale, 0 is no effect, 10 is complete control) (smallflower flatsedge; [6]) | S. Flatsedge plant response rating (smallflower flatsedge; [7]) | S. Flatsedge plant response rating (smallflower flatsedge; [8]) | Plant response rating, Rape (rape; [1]) | Plant response rating, Rape (rape; [2]) | Plant response rating, Rape (rape; [3]) | Rape plant response rating (0 to 10 scale) (rape; Preemergence, Rate 125 g/ha) | Rape plant response rating (rape; Preemergence, Rate 250 g/ha) | Rape plant response rating (rape; Rate 62 g/ha, Postemergence) | Plant response rating, Rape (rape; [4]) | Plant response rating, Velvetleaf (velvetleaf; [1]) | Plant response rating, Velvetleaf (velvetleaf; [2]) | Plant response rating, Velvetleaf (velvetleaf; [3]) | Velvetleaf plant response rating (0 to 10 scale) (velvetleaf; Preemergence, Rate 125 g/ha) | Velvetleaf plant response rating (velvetleaf; Rate 62 g/ha, Postemergence) | Plant response rating, Velvetleaf (velvetleaf; [4]) | Plant response rating, Ducksalad (0 to 10 scale, 0 is no effect, 10 is complete control) (duck salad; [5]) | Ducksalad plant response rating (0 to 10 scale, 0 is no effect, 10 is complete control) (duck salad; [6]) | Ducksalad plant response rating (duck salad; [7]) | Ducksalad plant response rating (duck salad; [8]) | Plant response rating, Cocklebur (cocklebur; [1]) | Plant response rating, Cocklebur (cocklebur; [2]) | Plant response rating, Cocklebur (cocklebur; [3]) | Cocklebur plant response rating (0 to 10 scale) (cocklebur; Preemergence, Rate 125 g/ha) | Cocklebur plant response rating (cocklebur; Preemergence, Rate 250 g/ha) | Cocklebur plant response rating (cocklebur; Preemergence, Rate 500 g/ha) | Cocklebur plant response rating (cocklebur; Rate 62 g/ha, Postemergence) | Plant response rating, Cocklebur (cocklebur; [4]) | Plant response rating, Wheat (wheat; [1]) | Plant response rating, Wheat (wheat; [2]) | Plant response rating, Wheat (wheat; [3]) | Wheat plant response rating (0 to 10 scale) (wheat; Preemergence, Rate 125 g/ha) | Wheat plant response rating (wheat; Rate 62 g/ha, Postemergence) | Plant response rating, Blackgrass (blackgrass; [1]) | Plant response rating, Blackgrass (blackgrass; [3]) | Blackgrass plant response rating (0 to 10 scale) (blackgrass; Preemergence, Rate 125 g/ha) | Blackgrass plant response rating (blackgrass; Rate 62 g/ha, Postemergence) | Plant response rating, Corn (corn; [1]) | Plant response rating, Corn (corn; [2]) | Plant response rating, Corn (corn; [3]) | Corn plant response rating (0 to 10 scale) (corn; Preemergence, Rate 125 g/ha) | Corn plant response rating (corn; Preemergence, Rate 250 g/ha) | Corn plant response rating (corn; Preemergence, Rate 500 g/ha) | Corn plant response rating (corn; Rate 62 g/ha, Postemergence) | Plant response rating, Corn (corn; [4]) | Plant response rating, Sugarbeets (sugar beet; [1]) | Plant response rating, Sugarbeets (sugar beet; [2]) | Plant response rating, Sugarbeets (sugar beet; [3]) | Sugarbeets plant response rating (sugar beet; Rate 62 g/ha, Postemergence) | Plant response rating, Sugarbeets (sugar beet; [4]) | Plant response rating, Morningglory (morningglory; [3]) | Morningglory plant response rating (0 to 10 scale) (morningglory; Preemergence, Rate 125 g/ha) | Morningglory plant response rating (morningglory; Preemergence, Rate 250 g/ha) | Plant response rating, Redroot pigweed (pigweed; [1]) | Plant response rating, Redroot pigweed (pigweed; [2]) | Redroot pigweed plant response rating (pigweed; Rate 62 g/ha, Postemergence) | Plant response rating, Redroot pigweed (pigweed; [4]) | Plant response rating, Rice (0 to 10 scale, 0 is no effect, 10 is complete control) (rice; [5]) | Rice plant response rating (0 to 10 scale, 0 is no effect, 10 is complete control) (rice; [6]) | Rice plant response rating (rice; [7]) | Rice plant response rating (rice; [8]) | Plant response rating, Nutsedge (purple nutsedge; [1]) | Plant response rating, Nutsedge (purple nutsedge; [2]) | Plant response rating, Nutsedge (purple nutsedge; [3]) | Nutsedge plant response rating (0 to 10 scale) (purple nutsedge; Preemergence, Rate 125 g/ha) | Nutsedge plant response rating (purple nutsedge; Preemergence, Rate 250 g/ha) | Nutsedge plant response rating (purple nutsedge; Preemergence, Rate 500 g/ha) | Nutsedge plant response rating (purple nutsedge; Rate 62 g/ha, Postemergence) | Plant response rating, Nutsedge (purple nutsedge; [4])
1: Sugarbeets plant response rating (0 to 10 scale) (sugar beet; Preemergence, Rate 125 g/ha) | Plant response rating, Morningglory (morningglory; [1]) | Morningglory plant response rating (morningglory; Rate 62 g/ha, Postemergence)
10: Crabgrass plant response rating (crabgrass; Preemergence, Rate 500 g/ha) | Blackgrass plant response rating (blackgrass; Preemergence, Rate 500 g/ha) | Redroot pigweed plant response rating (pigweed; Preemergence, Rate 500 g/ha) | Giant foxtail plant response rating (0 to 10 scale) (giant foxtail; Preemergence, Rate 125 g/ha) | Giant foxtail plant response rating (giant foxtail; Preemergence, Rate 250 g/ha) | Giant foxtail plant response rating (giant foxtail; Preemergence, Rate 500 g/ha)
5: Plant response rating, Wheat (wheat; [4]) | Plant response rating, Morningglory (morningglory; [4])
2: Plant response rating, Blackgrass (blackgrass; [2]) | Sugarbeets plant response rating (sugar beet; Preemergence, Rate 250 g/ha) | Plant response rating, Morningglory (morningglory; [2]) | Morningglory plant response rating (morningglory; Preemergence, Rate 500 g/ha) | Plant response rating, Redroot pigweed (pigweed; [3])
9: B. signalgrass plant response rating (surinam grass; Preemergence, Rate 500 g/ha) | Plant response rating, Crabgrass (crabgrass; [2]) | Crabgrass plant response rating (0 to 10 scale) (crabgrass; Preemergence, Rate 125 g/ha) | Crabgrass plant response rating (crabgrass; Preemergence, Rate 250 g/ha) | Plant response rating, Crabgrass (crabgrass; [4]) | Plant response rating, Giant foxtail (giant foxtail; [1]) | Plant response rating, Giant foxtail (giant foxtail; [2]) | Plant response rating, Giant foxtail (giant foxtail; [4])
6: Plant response rating, B. signalgrass (surinam grass; [2]) | Crabgrass plant response rating (crabgrass; Rate 62 g/ha, Postemergence) | Blackgrass plant response rating (blackgrass; Preemergence, Rate 250 g/ha)
4: Rape plant response rating (rape; Preemergence, Rate 500 g/ha)
3: Plant response rating, B. signalgrass (surinam grass; [1]) | Velvetleaf plant response rating (velvetleaf; Preemergence, Rate 250 g/ha) | Velvetleaf plant response rating (velvetleaf; Preemergence, Rate 500 g/ha) | Plant response rating, Crabgrass (crabgrass; [3]) | Wheat plant response rating (wheat; Preemergence, Rate 250 g/ha) | Plant response rating, Giant foxtail (giant foxtail; [3])
7: B. signalgrass plant response rating (surinam grass; Preemergence, Rate 250 g/ha) | Plant response rating, Crabgrass (crabgrass; [1]) | Sugarbeets plant response rating (sugar beet; Preemergence, Rate 500 g/ha) | Redroot pigweed plant response rating (0 to 10 scale) (pigweed; Preemergence, Rate 125 g/ha) | Redroot pigweed plant response rating (pigweed; Preemergence, Rate 250 g/ha) | Giant foxtail plant response rating (giant foxtail; Rate 62 g/ha, Postemergence)

Reference: patent publication US6737383B1, “Herbicidal oxadiazolidines” (priority 1999, dated 2004)
